# Source: patent publication US8143242B2, “Malonamide derivatives with antithrombotic activity” (Sanofi-Aventis, priority 2007, dated 2012)
# Where a name gives a salt, the structure may show the parent alone.
# Molecular target: T1, human factor VIIa and TF (factor VIIa/tissue factor) (Homo sapiens, UniProt P08709)
# T1 construct: human factor VIIa and TF
# Experiment: Factor VIIa (FVIIa) chromogenic assay
# Format: biochemical
# Conditions: chromogenic substrate S-2288 500 μM; 5 nM FVIIa, 10 nM TF; 25° C.; 15 minute preincubation; pH 8.15
# Method: The ability of the compounds of the formulae I and Ia to inhibit factor VIIa or other enzymes like factor Xa, thrombin, plasmin, or trypsin can be assessed by determining the concentration of the compound of the formulae I and Ia that inhibits enzyme activity by 50%, i. e. the IC50 value, which is related to the inhibition constant Ki. Purified enzymes are used in chromogenic assays. The concentration of inhibitor that causes a 50% decrease in the rate of substrate hydrolysis is determined by linear regression after plotting the relative rates of hydrolysis (compared to the uninhibited control) versus the log of the concentration of the compound of formulae I and Ia. For calculating the inhibition constant Ki, the IC50 value is corrected for competition with substrate using the formula Ki=IC50/{1+(substrate concentration/Km)} wherein Km is the Michaelis-Menten constant (Chen and Prusoff, Biochem. Pharmacol. 22 (1973), 3099-3108; I. H. Segal, Enzyme Kinetics, 1975, John Wiley & Sons, New York, 100-125; which are incorporated herein by reference).
# Factor VIIa (FVIIa) Assay
# The inhibitory activity (expressed as inhibition constant Ki(FVIIa)) of the compounds of formulae I and Ia towards factor VIIa/tissue factor activity was determined using a chromogenic assay essentially as described previously (J. A. Ostrem et al., Biochemistry 37 (1998) 1053-1059 which is incorporated herein by reference). Kinetic assays were conducted at 25° C. in half-area microtiter plates (Costar Corp., Cambridge, Ma.) using a kinetic plate reader (Molecular Devices Spectramax 250). A typical assay consisted of 25 μl human factor VIIa and TF (5 nM and 10 nM, respective final concentration) combined with 40 μl of inhibitor dilutions in 10% DMSO/TBS-PEG buffer (50 mM Tris, 15 mM NaCl, 5 mM CaCl2, 0.05% PEG 8000, pH 8.15). Following a 15 minute preincubation period, the assay was initiated by the addition of 35 μl of the chromogenic substrate S-2288 (D-Ile-Pro-Arg-p-nitroanilide, Pharmacia Hepar Inc., 500 μM final concentration).
# T1 sequence (P08709 213-466 limits assumed): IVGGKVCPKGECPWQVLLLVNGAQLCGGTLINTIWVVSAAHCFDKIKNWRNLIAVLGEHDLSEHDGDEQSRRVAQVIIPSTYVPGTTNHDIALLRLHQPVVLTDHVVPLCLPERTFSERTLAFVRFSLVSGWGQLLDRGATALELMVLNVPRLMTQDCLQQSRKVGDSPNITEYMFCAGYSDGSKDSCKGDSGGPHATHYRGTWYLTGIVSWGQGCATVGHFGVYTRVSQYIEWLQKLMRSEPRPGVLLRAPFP
# T1 sequence (P08709 61-212 limits assumed): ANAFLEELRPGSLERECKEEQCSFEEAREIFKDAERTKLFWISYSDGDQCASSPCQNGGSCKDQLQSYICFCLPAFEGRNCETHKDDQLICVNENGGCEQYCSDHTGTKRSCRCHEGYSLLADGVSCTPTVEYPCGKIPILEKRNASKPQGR
# T1 sequence (P13726 33-295 partner): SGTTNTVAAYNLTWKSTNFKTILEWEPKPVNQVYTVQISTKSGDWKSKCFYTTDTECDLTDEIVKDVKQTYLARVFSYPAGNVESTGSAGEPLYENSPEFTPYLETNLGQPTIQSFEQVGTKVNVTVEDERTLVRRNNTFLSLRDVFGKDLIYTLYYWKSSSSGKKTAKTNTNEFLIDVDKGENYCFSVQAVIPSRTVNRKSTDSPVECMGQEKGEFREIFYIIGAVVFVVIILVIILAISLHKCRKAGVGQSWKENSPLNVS
row,Ki [nM],Molecule
1,588,CC(NC(=O)CC(=O)Nc1ccc(C(=N)N)cc1)c1ccc(S(=O)(=O)Cc2ccncc2)c(Cl)c1 (centres unmarked) [Example 67]
2,7,C[C@H](NC(=O)CC(=O)Nc1ccc(C(=N)N)cc1)c1ccc(OC2CCOCC2)c(-c2ccc(Cl)s2)c1 [Example 113]
3,87,Cc1ncsc1CCOc1ccc(C(C)NC(=O)CC(=O)Nc2ccc(C(=N)N)cc2)cc1Br (centres unmarked) [Example 61]
4,87,CC(NC(=O)CC(=O)Nc1ccc(C(=N)N)cc1)c1ccc(OCc2ccoc2)c(Br)c1 (centres unmarked) [Example 52]
5,61,CC(C)OCCOc1ccc(C(C)NC(=O)CC(=O)Nc2ccc(C(=N)N)cc2)cc1C(F)(F)F (centres unmarked) [Example 24]
6,80,COC1CCC(Oc2ccc(C(C)NC(=O)CC(=O)Nc3ccc(C(=N)N)cc3)cc2C(F)(F)F)CC1 (centres unmarked) [Example 50]
7,47,C[C@H](NC(=O)CC(=O)Nc1ccc(C(=N)N)cc1)c1ccc(OCCO)c(C(F)(F)F)c1 [Example 26]
8,30,C[C@H](NC(=O)CC(=O)Nc1ccc(C(=N)N)cc1)c1ccc(S(=O)(=O)N2CCOCC2)c(Br)c1 [Example 117]
9,27,COCCN(C)S(=O)(=O)c1ccc([C@H](C)NC(=O)CC(=O)Nc2ccc(C(=N)N)cc2)cc1C(F)(F)F [Example 76]
10,37,COCCNS(=O)(=O)c1ccc([C@H](C)NC(=O)CC(=O)Nc2ccc(C(=N)N)cc2)cc1C(F)(F)F [Example 75]
11,41,"C[C@H](NC(=O)CC(=O)Nc1ccc(C(=N)N)cc1)c1ccc(Oc2cncc(C(=O)O)c2)c(Br)c1 [Example 1, 5-(2-Bromo-4-{(S)-1-[2-(4-carbamimidoyl-phenylcarbamoyl)-acetylamino]-ethyl}-phenoxy)-nicotinic acid*acetic acid salt]"
12,78,CC(NC(=O)CC(=O)Nc1ccc(C(=N)N)cc1)c1ccc(OCCCN2CCCC2=O)c(C(F)(F)F)c1 (centres unmarked) [Example 44]
13,29,C[C@H](NC(=O)CC(=O)Nc1ccc(C(=N)N)cc1)c1ccc(S(=O)(=O)N2CCOC[C@@H]2C)c(C(F)(F)F)c1 [Example 112]
14,169,CC(NC(=O)CC(=O)Nc1ccc(C(=N)N)cc1)c1ccc(OCCCCCC(=O)O)c(Br)c1 (centres unmarked) [Example 3]
15,36,"CC(NC(=O)CC(=O)Nc1ccc(C(=N)N)cc1)c1ccc(S(=O)(=O)c2ccncc2)c(C(F)(F)F)c1 (centres unmarked) [Example 74, N-(4-Carbamimidoyl-phenyl)-N′-{1-[4-(pyridine-4-sulfonyl)-3-trifluoromethyl-phenyl]-ethyl}-malonamide*trifluoro-acetic acid salt]"
16,24,"COCCOc1ccc([C@H](C)NC(=O)CC(=O)Nc2ccc(C(=N)N)cc2)cc1C(F)(F)F [Example 10, N-(4-Carbamimidoyl-phenyl)-N′—{(S)-1-[4-(2-methoxy-ethoxy)-3-trifluoromethyl-phenyl]-ethyl}-malonamide]"
17,171,"CC(NC(=O)CC(=O)Nc1ccc(C(=N)N)cc1)c1ccc(Oc2cccc(CO)c2)c(Br)c1 (centres unmarked) [Example 2, N-{1-[3-Bromo-4-(3-hydroxymethyl-phenoxy)-phenyl]-ethyl}-N′-(4-carbamimidoyl-phenyl)-malonamide*trifluoro-acetic acid salt]"
18,122,CC(NC(=O)CC(=O)Nc1ccc(C(=N)N)cc1)c1ccc(OCCCCO)c(C(F)(F)F)c1 (centres unmarked) [Example 51]
19,55,"CC(NC(=O)CC(=O)Nc1ccc(C(=N)N)cc1)c1ccc(S(=O)(=O)N2CCOCC2)c(C(F)(F)F)c1 (centres unmarked) [Example 28, N-(4-Carbamimidoyl-phenyl)-N′-{1-[4-(morpholine-4-sulfonyl)-3-trifluoromethyl-phenyl]-ethyl}-malonamide*trifluoro-acetic acid salt]"

row,Molecule,Ki [nM]
1,N-(4-Carbamimidoyl-phenyl)-N′—[(S)-1-(3-trifluoromethanesulfonyl-phenyl)-ethyl]-malonamide*trifluoro-acetic acid salt [Example 77],99
